According to article PMC10720709, “Design, synthesis, and evaluation of 4-(3-(3,5-dimethylisoxazol-4-yl)benzyl)phthalazin-1(2H)-one derivatives: potent BRD4 inhibitors with anti-breast cancer activity” (Frontiers in Pharmacology, 2023):
Read-outs that look alike come from different tables or passages of the source.

What was measured:
[1] = molecular target: T1, recombinant BRD4 (BD1 + BD2) (Homo sapiens, UniProt O60885); experiment: BRD4 TR-FRET activity assay; type: binding; details: for inhibition at 1 µM: 1 μmol/L, read-out: BRD4 inhibition rate; for IC50: TR-FRET, BRD4 (BD1 + BD2);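 on all read-outs here: signal rises with BET ligand binding to the bromodomains, so inhibitors lower it, 120 min incubation at room temperature, 1% DMSO, wells lacking ligand as negative control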
T1 construct: employing a recombinant BRD4 (BD1 + BD2) and its corresponding ligand
Method: The BRD4 activity assay utilized TR-FRET technology, employing a recombinant BRD4 (BD1 + BD2) and its corresponding ligand. The TR-FRET signal generated in the assay is proportional to the ligand’s binding to the bromodomains. All reactions contained a final DMSO concentration of 1%. All binding reactions were conducted at room temperature. Each 20 µL reaction mixture, in assay buffer, comprised bromodomains, the BET Ligand, and the specified inhibitor amount. For the negative control, 5 µL of assay buffer replaced the BET ligand. After a 120-min incubation with the ligand, the TR-FRET signal was captured using a Tecan Infinite M1000 plate reader. IC50 values were determined through nonlinear regression with a normalized dose-response fit in Prism GraphPad software.

MCF-7 cells [2] = experiment: MTT cell viability assay, MCF-7; type: cell-based; details: Homo sapiens, read-out: Cytotoxicity IC50
Method: (§1) MDA-MB-468, MDA-MB-231, and MCF-7 cell lines were sourced from the National Collection of Authenticated Cell Culture, China. Cells were maintained in DMEM medium supplemented with 10% FBS and 1% penicillin/streptomycin, and incubated at 37°C in a humidified atmosphere containing 5% CO2.
(§2) The viability of cells was assessed using the MTT assay. Cells were seeded at a density of 3×10^3 cells per well in a 96-well plate and treated with varying concentrations (0.05, 0.2, 0.8, 3.2, 6.4, 12.8 µM) of the compounds for 72 h. Post-incubation, 100 µL of MTT solution (0.5 mg/mL) was added to each well and further incubated for 4 h. The resulting formazan crystals were dissolved in 150 µL DMSO, and the absorbance was measured at 570 nm using a microplate reader.

MDA-MB-231 cells = experiment: MTT cell viability assay, MDA-MB-231; type: cell-based; details: Homo sapiens, read-out: Cytotoxicity IC50
Method: as §1, §2

MDA-MB-468 cells = experiment: MTT cell viability assay, MDA-MB-468; type: cell-based; details: Homo sapiens, read-out: Cytotoxicity IC50
Method: as §1, §2

PARP1 = PARP1 (Homo sapiens, UniProt P09874); experiment: PARP1 enzymatic activity ELISA; type: biochemical; details: 0.5 μmol/L; read-out: PARP1 inhibition rate
Method: The inhibition of PARP1 enzymatic activity by the tested compounds was gauged using an ELISA in 96-well plates. Each well was pre-coated with histone (20 μg/mL) in 100 μL of PBS buffer and incubated overnight at 4 °C. […] This was followed by the addition of 5 μL of either the compound at varying concentrations or a solvent control. The reaction was initiated by adding 20 μL of PARP (50 ng/well) and incubating at 30°C for 1 h. Post-reaction, 50 µL of streptavidin-conjugated HRP was introduced, and the assay continued at 30°C for an additional 30 min. Finally, 100 μL of a solution containing H2O2 and luminol in 0.1 M citrate buffer (pH 5.4) was added, and the luminescent signal was recorded using a Molecular Devices SpectraMax M5 microplate reader.

MCF-7 cells [3] = experiment: Wound scratch cell migration assay; type: cell-based; details: MCF-7, wound scratch, 1 μM, 48 h
Method: MCF-7 cells were seeded in 6-well plates at a density of 5×10^5 cells/well and incubated overnight. A scratch was made in the cell monolayer using a 10 µL pipette tip. […] Images were captured at 0, 12, 24, and 48-h intervals.

MCF-7 cells [4] = experiment: Cell cycle analysis (PI, flow cytometry); type: cell-based; details: MCF-7, 48 h
Method: The cell cycle distribution was assessed using the DNA Content Quantitation Assay Kit (Solarbio, China). […] After treatment, cells were harvested, fixed in ice-cold 70% ethanol overnight at 4°C, and subsequently washed with PBS. Cells were then treated with 100 μL RNase at 37°C for 30 min and stained with 400 μL PI for 30 min at 4°C in the dark. The cell cycle distribution was analyzed using an Accuri C6 Plus flow cytometer (BD Bioscience, CA), and data interpretation was performed with FlowJo software.

Chain of PARP1 (P09874 whole entry): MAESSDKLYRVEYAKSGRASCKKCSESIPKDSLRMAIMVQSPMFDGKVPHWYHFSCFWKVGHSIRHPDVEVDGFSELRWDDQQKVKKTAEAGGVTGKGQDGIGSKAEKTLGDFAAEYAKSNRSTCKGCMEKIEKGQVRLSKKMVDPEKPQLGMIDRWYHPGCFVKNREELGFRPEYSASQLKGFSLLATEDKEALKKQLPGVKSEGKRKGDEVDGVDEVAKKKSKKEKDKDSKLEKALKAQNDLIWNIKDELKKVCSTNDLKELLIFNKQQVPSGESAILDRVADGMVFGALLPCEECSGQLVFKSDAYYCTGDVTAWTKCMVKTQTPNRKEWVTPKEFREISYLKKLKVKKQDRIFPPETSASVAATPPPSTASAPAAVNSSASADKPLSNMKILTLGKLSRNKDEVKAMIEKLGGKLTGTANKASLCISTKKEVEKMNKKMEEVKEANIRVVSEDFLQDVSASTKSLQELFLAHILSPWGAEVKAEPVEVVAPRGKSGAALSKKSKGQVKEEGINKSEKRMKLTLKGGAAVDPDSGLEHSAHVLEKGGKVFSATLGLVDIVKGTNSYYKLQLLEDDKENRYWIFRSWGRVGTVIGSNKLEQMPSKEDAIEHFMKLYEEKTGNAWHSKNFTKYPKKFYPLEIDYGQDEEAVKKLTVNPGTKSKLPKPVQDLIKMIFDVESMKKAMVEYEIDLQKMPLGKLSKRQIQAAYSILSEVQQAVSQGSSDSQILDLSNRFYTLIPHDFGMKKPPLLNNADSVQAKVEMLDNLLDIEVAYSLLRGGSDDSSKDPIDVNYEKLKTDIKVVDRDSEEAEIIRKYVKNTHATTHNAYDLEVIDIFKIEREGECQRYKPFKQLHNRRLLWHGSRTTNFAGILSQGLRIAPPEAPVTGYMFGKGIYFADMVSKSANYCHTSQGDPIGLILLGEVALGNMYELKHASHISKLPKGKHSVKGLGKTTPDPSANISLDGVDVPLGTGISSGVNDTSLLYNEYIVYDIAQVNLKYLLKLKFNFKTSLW

| SMILES | inhibition at 1 µM [1] [%] | melting point [°C] | further results |
| --- | --- | --- | --- |
| CC(=O)Nc1cccc(CNc2cc(Cc3n[nH]c(=O)c4ccccc34)cc(-c3c(C)noc3C)c2)c1 [DDT47] | 78 |  | IC50 (MCF-7 cells [2]; MCF7, MCF-7, MTT, 72 h): 11.7 µM; IC50 (MDA-MB-231 cells; MDA-MB-231, MTT, 72 h): 17.1 µM; IC50 (MDA-MB-468 cells; MDA-MB-468, MTT, 72 h): 9.39 µM |
| Cc1ccc(S(=O)(=O)Nc2cc(Cc3n[nH]c(=O)c4ccccc34)cc(-c3c(C)noc3C)c2)cc1 [DDT59] | 75 |  | IC50 [1]: 0.909 ± 0.396 µM; IC50 (MCF-7 cells [2]; MCF7, MCF-7, MTT, 72 h): > 20 µM; inhibition at 0.5 µM (PARP1): 8%; IC50 (MDA-MB-231 cells; MDA-MB-231, MTT, 72 h): 7.44 µM; IC50 (MDA-MB-468 cells; MDA-MB-468, MTT, 72 h): 11 µM |
| Cc1cccc(C(=O)Nc2cc(Cc3n[nH]c(=O)c4ccccc34)cc(-c3c(C)noc3C)c2)c1 [DDT24] | 91 | > 250 | IC50 [1]: 1.88 ± 0.6 µM; IC50 (MCF-7 cells [2]; MCF7, MCF-7, MTT, 72 h): 12.8 µM; IC50 (MDA-MB-231 cells; MDA-MB-231, MTT, 72 h): 8.23 µM; IC50 (MDA-MB-468 cells; MDA-MB-468, MTT, 72 h): 9.09 µM |
| CC(=O)Nc1ccc(CNc2cc(Cc3n[nH]c(=O)c4ccccc34)cc(-c3c(C)noc3C)c2)cc1 [DDT48] | 96 |  | IC50 [1]: 0.46 ± 0.17 µM; IC50 (MCF-7 cells [2]; MCF7, MCF-7, MTT, 72 h): > 20 µM; IC50 (MDA-MB-231 cells; MDA-MB-231, MTT, 72 h): 8.77 µM; IC50 (MDA-MB-468 cells; MDA-MB-468, MTT, 72 h): 9.09 µM |
| Cc1ccc(C(=O)Nc2cc(Cc3n[nH]c(=O)c4ccccc34)cc(-c3c(C)noc3C)c2)cc1 [DDT25] | 76 |  | IC50 (MCF-7 cells [2]; MCF7, MCF-7, MTT, 72 h): 12.5 µM; IC50 (MDA-MB-231 cells; MDA-MB-231, MTT, 72 h): 11.6 µM; IC50 (MDA-MB-468 cells; MDA-MB-468, MTT, 72 h): 6.5 µM |
| Cc1sc2c(c1C)C(c1ccc(Cl)cc1)=N[C@@H](CC(=O)OC(C)(C)C)c1nnc(C)n1-2 [JQ1, reference compound] |  |  | IC50 (MCF-7 cells [2]; MCF7, 72 h): 18.4 µM; IC50 (MDA-MB-231 cells; MDA-MB-231, 72 h): 4.83 µM; inhibition of cell migration (in words) (MCF-7 cells [3]): most potent inhibitory effect; IC50 (MDA-MB-468 cells; MDA-MB-468, 72 h): 3.24 µM |
| Cc1noc(C)c1-c1cc(Cc2n[nH]c(=O)c3ccccc23)cc(NCc2cccc(Br)c2)c1 [DDT40] | 3 | 235 to 236 |  |
| Cc1noc(C)c1-c1cc(Cc2n[nH]c(=O)c3ccccc23)cc(NCc2ccc(C(F)(F)F)cc2)c1 [DDT46] | 39 | 220 to 221 |  |
| Cc1noc(C)c1-c1cc(Cc2n[nH]c(=O)c3ccccc23)cc(C(=O)N2CCC(O)CC2)c1 [DDT21] | 19 | 176 to 177 |  |
| Cc1ccccc1C(=O)Nc1cc(Cc2n[nH]c(=O)c3ccccc23)cc(-c2c(C)noc2C)c1 [DDT23] | 97 |  | IC50 (MCF-7 cells [2]; MCF7, MCF-7, MTT, 72 h): 18.7 µM; IC50 (MDA-MB-231 cells; MDA-MB-231, MTT, 72 h): 8.83 µM; IC50 (MDA-MB-468 cells; MDA-MB-468, MTT, 72 h): 10.6 µM |
| Cc1cccc(CS(=O)(=O)Nc2cc(Cc3n[nH]c(=O)c4ccccc34)cc(-c3c(C)noc3C)c2)c1 [DDT77] | 38 | 154 to 155 |  |
| Cc1noc(C)c1-c1cc(Cc2n[nH]c(=O)c3ccccc23)cc(C(=O)NC2CCCCC2)c1 [DDT04] | 56 | 178 to 179 |  |
| Cc1noc(C)c1-c1cc(Cc2n[nH]c(=O)c3ccccc23)cc(NS(=O)(=O)c2ccc(Cl)cc2)c1 [DDT89] | 72 | 147 to 148 |  |
| Cc1noc(C)c1-c1cc(Cc2n[nH]c(=O)c3ccccc23)cc(NCc2ccc(F)c(Br)c2)c1 [DDT43] | 4 | > 250 |  |
| Cc1noc(C)c1-c1cc(Cc2n[nH]c(=O)c3ccccc23)cc(NS(=O)(=O)c2cccc(S(C)(=O)=O)c2)c1 [DDT94] | 5 | 243 to 244 |  |
| Cc1noc(C)c1-c1cc(Cc2n[nH]c(=O)c3ccccc23)cc(NCc2ccccc2)c1 [DDT33] | 3 | 230 to 231 |  |

| SMILES | inhibition at 1 µM [1] [%] | melting point [°C] | further results |
| --- | --- | --- | --- |
| Cc1noc(C)c1-c1cc(Cc2n[nH]c(=O)c3ccccc23)cc(C(=O)N2CC[C@H](O)C2)c1 [DDT14] | 74 | 204 to 205 | IC50 [1]: 1.1 ± 0.45 µM; IC50 (MCF-7 cells [2]; MCF7, MCF-7, MTT, 72 h): > 20 µM; inhibition at 0.5 µM (PARP1): 53%; IC50 (MDA-MB-231 cells; MDA-MB-231, MTT, 72 h): 8.29 µM; IC50 (MDA-MB-468 cells; MDA-MB-468, MTT, 72 h): 14.4 µM |
| Cc1noc(C)c1-c1cc(Cc2n[nH]c(=O)c3ccccc23)cc(NCc2cccc(N)c2)c1 [DDT49] | 72 |  | IC50 [1]: 0.585 ± 0.225 µM; inhibition at 0.5 µM (PARP1): 50% |
| Cc1cc(C)cc(S(=O)(=O)Nc2cc(Cc3n[nH]c(=O)c4ccccc34)cc(-c3c(C)noc3C)c2)c1 [DDT60] | 28 | 155 to 156 |  |
| Cc1noc(C)c1-c1cc(Cc2n[nH]c(=O)c3ccccc23)cc(C(=O)N[C@H]2CC[C@@H](O)CC2)c1 [DDT11] | 54 | 214 to 215 |  |
| Cc1noc(C)c1-c1cc(Cc2n[nH]c(=O)c3ccccc23)cc(NS(=O)(=O)c2ccc(O)cc2)c1 [DDT79] | 7 | 238 to 239 |  |
| Cc1noc(C)c1-c1cc(Cc2n[nH]c(=O)c3ccccc23)cc(NC(=O)c2cccc(C(F)(F)F)c2)c1 [DDT27] | 60 | 231 to 232 |  |
| CNC(=O)c1cc(Cc2n[nH]c(=O)c3ccccc23)cc(-c2c(C)noc2C)c1 [DDT02] | 5 | > 250 |  |
| Cc1noc(C)c1-c1cc(Cc2n[nH]c(=O)c3ccccc23)cc(NS(=O)(=O)c2ccc3c(c2)CCO3)c1 [DDT75] | 42 | 162 to 163 |  |
| Cc1noc(C)c1-c1cc(Cc2n[nH]c(=O)c3ccccc23)cc(C(=O)N2CCOCC2)c1 [DDT16] | 71 | 241 to 242 |  |
| COc1ccc(S(=O)(=O)Nc2cc(Cc3n[nH]c(=O)c4ccccc34)cc(-c3c(C)noc3C)c2)cc1OC [DDT70] | 32 | 165 to 166 |  |
| COc1ccc(S(=O)(=O)Nc2cc(Cc3n[nH]c(=O)c4ccccc34)cc(-c3c(C)noc3C)c2)cc1 [DDT69] | 70 | 155 to 156 |  |
| O=C(c1cc(Cc2n[nH]c(=O)c3ccccc23)ccc1F)N1CCN(C(=O)C2CC2)CC1 [Olaparib, reference compound] |  |  | IC50 (MCF-7 cells [2]; MCF7, MCF-7, MTT, 72 h): 8.7 µM; IC50 (MDA-MB-231 cells; MDA-MB-231, MTT, 72 h): 8.17 µM; inhibition of cell migration (in words) (MCF-7 cells [3]): no inhibitory activity; effect on cell cycle (in words) (MCF-7 cells [4]): did not influence the MCF-7 cell cycle; IC50 (MDA-MB-468 cells; MDA-MB-468, MTT, 72 h): 8.09 µM |
| Cc1noc(C)c1-c1cc(Cc2n[nH]c(=O)c3ccccc23)cc(NCc2ccc(Cl)cc2)c1 [DDT39] | 16 | 200 to 201 |  |
| CCc1ccc(S(=O)(=O)Nc2cc(Cc3n[nH]c(=O)c4ccccc34)cc(-c3c(C)noc3C)c2)cc1 [DDT62] | 67 | 202 to 203 |  |
| Cc1noc(C)c1-c1cc(Cc2n[nH]c(=O)c3ccccc23)cc(C(=O)NCc2cccnc2)c1 [DDT07] | 8 | > 250 |  |
| Cc1ccc(CNc2cc(Cc3n[nH]c(=O)c4ccccc34)cc(-c3c(C)noc3C)c2)cc1 [DDT45] | 7 | 215 to 216 |  |
